According to PMC10305119, “Analogs of 6-Bromohypaphorine with Increased Agonist Potency for α7 Nicotinic Receptor as Anti-Inflammatory Analgesic Agents” (Marine Drugs, 2023):
“Also recorded” adds a separate entry of the source.

Tests used:
[1] = test system: carrageenan-induced inflammation; experiment: Carrageenan-induced inflammation test; format: in vivo, ICR mice; details: for oedema (paw diameter): 0.5 mg/kg (hypaphorine and 6ID also 1 mg/kg); for analgesia in von Frey test: versus vehicle
Description: Subplantar 1% carrageenan injections in a volume of 30 μL into the right hind paw were carried out to generate an inflammation model in mice. The paw volume was measured beforehand using an electronic calliper. The maximum effect of the introduction of carrageenan was observed after 3 h. […] The control group was treated with saline (0.9% NaCl). Two hours after the drug administration (total 3 h from carrageenan injection), the size of the pad of the right hind paw was measured, the von Frey test and paw pressure analgesimeter pain sensitivity assessment were performed.
Carrageenan inflammation was induced by injecting 30 μL of a 1% carrageenan suspension (Sigma-Aldrich, lot #SLBK3896V) into the subplantar surface of the ICR mice hind paw. The oedema degree of the carrageenan-induced paw was evaluated using an electronic calliper by the volume difference of the animal’s right hind paw after (3 h from carrageenan injection) and before being hurt by carrageenan.
[…] The control group was treated with saline (0.9% NaCl).
Antinociceptive testing was performed 2 h after the drug administration (3 h after carrageenan injection).
Nociceptive testing was performed by utilizing the von Frey test and Paw pressure test.
The animals were placed in 20 cm × 20 cm Plexiglas boxes equipped with a metallic mesh floor. Animals were allowed to habituate themselves to their environment for 15 min before the test. […] The paw sensitivity threshold was defined as the minimum force required to elicit a robust and immediate withdrawal reflex of the paw. Spontaneous movements associated with locomotion were not considered as a withdrawal response. Measurements were repeated 3 times and the final value was obtained by averaging the 3 measurements.
Mechanical hyperalgesia was measured as a paw withdrawal response to a gradual increase of mechanical pressure applied by the Rodent pinchers—analgesia meter (model BIO-RP-M; BioSeb, Vitrolles, France). The influence of stimulation on each hind paw was recorded three times. The maximum force applied to the paw was recorded as the grams (g) of force on the dynamometer.

CFA-induced inflammation = CFA-induced inflammation test; format: in vivo, ICR mice; details: mice; for analgesia in hot plate test: 2 h after injection, 53 °C, doses 0.1, 0.5, 1 mg/kg; for oedema (paw diameter): intramuscular 0.1, 0.5, 1 mg/kg, measured 6-48 h
Description: Anti-inflammatory effect of two analogs of 6-substituted hypaphorine (6ND and 6ID) was tested in a model with subplantar administration of complete Freund’s adjuvant (CFA) in mice. CFA was injected once into the footpad to induce oedema in 24 h. Oedema was measured with an electronic calliper. Immediately after paw measurement, 6ND or 6ID was injected intramuscularly in doses 1, 0.5, and 0.1 mg/kg. Paws were measured at 6, 12, 24, and 48 h after administration of 6ND or 6ID. […] End points at 48 h of drug treatments at dose […] have been analyzed in terms of paw diameter normalized to the maximal oedemic levels in each group (Figure 6d).
Additionally, after 2 h following the drug injection, the analgesia test was conducted on the “hot plate” preheated to 53 °C. The time of withdrawal or licking of the affected paw was assessed for each animal.
The development of the inflammation and thermal hyperalgesia of the paw was induced by the injection of the oil/saline (1:1) CFA emulsion (Sigma-Aldrich, St. Louis, MO, lot # WH327536) into the subplantar surface of the hind paw of the ICR mice (20 µL/paw) 24 h before the measurement. Oedema was measured with an electronic calliper. Immediately after paw measurement, 6ND or 6ID were injected intramuscularly in doses: 1, 0.5, and 0.1 mg/kg. Paws were measured at 6, 12, 24, and 48 h after administration of 6ND or 6ID. After 2 h following the drug injection, the inflamed paw withdrawal or licking latencies to thermal stimulation were measured on a hot plate device (Hot Plate Analgesia Meter, Columbus Instruments) with a set temperature of 53 ± 0.1 °C and a cut-off time of 60 s.

Compound | oedema (paw diameter) ([1]; mice, 2 h after drug, listed as 6ND) | analgesia in von Frey test ([1]; mice, 2 h after drug) | analgesia in hot plate test (CFA-induced inflammation; listed as 6ND) | analgesia in paw pressure test (mechanical hyperalgesia) ([1]; mice, 2 h after drug) | oedema (paw diameter) ([1]; mice, 2 h after drug) | oedema (paw diameter) ([1]; mice, 2 h after drug, listed as synthetic hypaphorine) | analgesia in hot plate test (CFA-induced inflammation) | oedema reduction at 48 h end point, normalized to maximal oedema (CFA-induced inflammation; dose 0.5, 48 h) | oedema (paw diameter) (CFA-induced inflammation; listed as Hypaphorine) | oedema (paw diameter) (CFA-induced inflammation; listed as hypaphorine) | oedema (paw diameter) ([1]; mice, 2 h after drug, listed as 6ID) | carrageenan-induced allodynia and hyperalgesia ([1]; rodents, doses 0.1 and 0.5 mg/kg) | analgesia in hot plate test (CFA-induced inflammation; listed as 6ID) | oedema (paw diameter) (CFA-induced inflammation; listed as 6ID)
COC(=O)C(Cc1c[nH]c2cc([N+](=O)[O-])ccc12)[N+](C)(C)C (stereo not shown) [Compound 5, methyl ester of 6-nitrohypaphorine] | moderate anti-oedemic effect at a dose of 0.5 mg/kg | significant analgesia | significant analgesia in hot plate test only at 0.1 mg/kg; also recorded: at a dose of 0.1 mg/kg has a pronounced analgesic effect, but higher doses did not show a difference from the control group | – | – | – | – | – | – | – | – | – | – | –
C[N+](C)(C)[C@H](Cc1c[nH]c2ccccc12)C(=O)[O-] [Compound 16, L-hypaphorine, reference compound] | – | significant analgesia | – | strong evidence of analgesia in algesimeter and von Frey tests | only a tendency to decrease oedema, not statistically significant | No significant effect | analgesia in hot plate test at all tested doses from 0.1 to 1 mg/kg | markedly less effective reduction of oedema than 6ND and 6ID | demonstrated anti-oedemic properties | significantly reduced edema in a concentration-dependent manner at doses 0.1–1 mg/kg | – | – | – | –
COC(=O)[C@@H](Cc1c[nH]c2cc(I)ccc12)[N+](C)(C)C [Compound 1, (D)-6-iodohypaphorine methyl ester] | – | significant analgesia | – | – | – | – | – | – | – | – | marked decrease in paw diameter at doses 0.5 and 1 mg/kg | decreased carrageenan-induced allodynia and hyperalgesia | effective in the hot plate test at 0.5 as well as at 1 mg/kg; also recorded: at doses 0.5 and 1 mg/kg showed significant analgesia | significantly reduced by 6ID at 0.5 mg/kg starting from 12 h of treatment; also recorded: effective against oedema at doses 0.5 and 1 mg/kg
